Results as given in patent US20260055126A1, “SMALL MOLECULE COMPOUNDS WITH PHOSPHORYLATED ARYL STRUCTURES AND USE THEREOF” (HANGZHOU PHECDAMED CO., LTD., priority 2022, published 2026).
“And” between values parts separate entries of the source, which are not always exact repeats. Equal entries are not always repeated.

Legend:
[1] = system: recombinant TEAD1 protein (194-411, Uniprot ID: P28347); experiment: Thermal shift assay (protein melting point curve), TEAD1; format: binding; design: key to the marks not given beside the values; settings: 10 μM TEAD protein, 50 μM test compound
[2] = biological target: recombinant TEAD2 protein (218-447, Uniprot ID: Q15562) (Homo sapiens (Human), UniProt Q15562); experiment: Thermal shift assay (protein melting point curve), TEAD2; format: binding; settings: 10 μM TEAD protein, 50 μM test compound
[3] = biological target: recombinant TEAD3 protein (218-435, Uniprot ID: Q99594) (Homo sapiens (Human), UniProt Q99594); experiment: Thermal shift assay (protein melting point curve), TEAD3; format: binding; settings: 10 μM TEAD protein, 50 μM test compound
[4] = In vitro liver microsome stability, mouse; format: in vitro ADME; settings: mouse liver microsomes
Protocol: (§1) Testosterone is selected as the positive reference compound. The specific method is as follows:
(§2) Preparing 0.1MK3 PO4 (pH 7.4) buffer and 3×NADPH stock solution (6 mM, 5 mg/mL), and preheating in a 37° C. water bath; preparing spiking solution of tested compound and control compound: adding 5 μL compound stock solution (10 mM) to 95 μL acetonitrile; preparing 1.5 μM spiking solution in microsomes (0.75 mg/mL): add 1.5 μL spiking solution and 18.75 μL liver microsome solution (20 mg/mL) to 479.75 μL K3PO4 buffer; taking 30 μL spiking solution in microsomes and adding it to the multiwell plate, and incubating at 37° C. for 5 min; adding 15 μL of NADPH stock solution to each well, starting to react, and timing; adding 150 μL of acetonitrile solution containing IS at 0 min, 5 min, 15 min, 30 min, 45 min and 60 min respectively to terminate the reaction; after 10 min of oscillation, centrifuging the reaction at 6000 rpm for 15 min; taking 80 μL of supernatant from each well for LC/MS detection and calculating Ti/2.
(§3) Liver microsomes of mice, rats, dogs, and human used in the experiment are purchased from Xenotech.

[5] = In vitro liver microsome stability, human; format: in vitro ADME; settings: human liver microsomes
Protocol: as §1, §2, §3

[6] = In vitro liver microsome stability, rat; format: in vitro ADME; settings: rat liver microsomes
Protocol: as §1, §2, §3

[7] = system: Caco-2 cells; experiment: Permeability test on Caco2 cells; format: in vitro ADME; settings: for Papp average value: n = 2; for Papp / Receiving chamber concentration Area ratio/OD: single replicate
Protocol: After resuscitation, the Caco-2 cells are transferred to a conventional culture dish and cultured in a high-glucose DMEM medium (containing 10% FBS) at 37° C. and 5% CO2 in an incubator. When the cells cover 80% to 95% of the bottom of the dish, they are digested with trypsin containing 0.25% EDTA to disperse them into a single cell suspension, and the cell concentration is determined using a cell counter, after that, the concentration of the cell suspension is adjusted to 2 to 2.5×10^5/mL with fresh culture medium and inoculated into a Transwell polycarbonate membrane 12-well plate, the fresh culture medium is replaced every two days in the first two weeks and once a day in the last week, the culture is continued for 19 to 21 days to obtain a fully differentiated single cell layer.

[8] = biological target: recombinant TEAD1 protein central pocket (Homo sapiens (Human), UniProt P28347); experiment: Competitive thiol binding assay (CPM assay), TEAD1; settings: 150 nM recombinant TEAD protein, 150 nM CPM
Protocol: Diluting the tested compound in gradient to 5 uL with buffer (25 mM HEPES, 150 mM NaCl, pH6.5), then adding 5 μL of the newly prepared 0.45 uM recombinant TEAD protein solution, and incubating at room temperature for 10 minutes. […] After shaking the plate at room temperature for 1 hour, measuring the fluorescence intensity (Ex/Em: 380/470 nm).

Chain of recombinant TEAD2 protein (218-447, Uniprot ID: Q15562) (Q15562 218-447): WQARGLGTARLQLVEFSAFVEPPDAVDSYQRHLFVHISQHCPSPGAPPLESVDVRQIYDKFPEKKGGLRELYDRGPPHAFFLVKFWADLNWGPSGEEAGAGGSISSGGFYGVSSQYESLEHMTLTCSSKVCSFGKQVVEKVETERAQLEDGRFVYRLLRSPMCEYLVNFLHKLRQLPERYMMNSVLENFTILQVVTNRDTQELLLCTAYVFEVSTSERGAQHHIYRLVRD
Chain of recombinant TEAD1 protein central pocket (P28347 whole entry): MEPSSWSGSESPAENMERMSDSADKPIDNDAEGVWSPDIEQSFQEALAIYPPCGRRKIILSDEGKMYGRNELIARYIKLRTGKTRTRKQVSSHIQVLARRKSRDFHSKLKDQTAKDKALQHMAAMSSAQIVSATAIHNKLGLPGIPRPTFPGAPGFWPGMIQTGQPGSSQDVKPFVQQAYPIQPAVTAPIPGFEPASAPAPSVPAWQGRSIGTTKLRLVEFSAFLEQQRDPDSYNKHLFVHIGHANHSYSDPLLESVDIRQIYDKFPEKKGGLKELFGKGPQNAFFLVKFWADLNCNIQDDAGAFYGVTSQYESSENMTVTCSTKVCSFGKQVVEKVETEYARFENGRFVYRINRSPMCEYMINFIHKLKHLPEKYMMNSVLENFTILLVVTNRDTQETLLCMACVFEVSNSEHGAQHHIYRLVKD
Chain of recombinant TEAD3 protein (218-435, Uniprot ID: Q99594) (Q99594 218-435): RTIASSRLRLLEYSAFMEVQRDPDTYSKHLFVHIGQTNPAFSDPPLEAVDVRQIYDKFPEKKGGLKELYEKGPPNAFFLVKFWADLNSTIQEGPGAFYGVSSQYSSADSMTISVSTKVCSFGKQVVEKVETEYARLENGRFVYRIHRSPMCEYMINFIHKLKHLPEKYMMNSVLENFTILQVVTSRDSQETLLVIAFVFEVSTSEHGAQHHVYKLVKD

SMILES: CP(C)(=O)c1ccc(NCc2ccc(C(F)(F)F)cc2)c(-c2nccc(OC3COC3)n2)c1 [Compound 17]
- Δ T m (TEAD1) [1]: ++++
- Δ T m (TEAD2) [2]: ++
- Δ T m (TEAD3) [3]: +
- mouse half-life [4]: 33.9 min
- human half-life [5]: 107 min
- rat half-life [6]: 48.0 min
- Papp average value ([7]; AP→BL): 8.96 10^−6 cm/s
- Papp ([7]; AP→BL): 8.81 10^−6 cm/s and 9.12 10^−6 cm/s
- Receiving chamber concentration Area ratio/OD ([7]; AP→BL): 0.114 and 0.118
- Papp average value ([7]; BL→AP): 18.1 10^−6 cm/s
- Papp ([7]; BL→AP): 18.0 10^−6 cm/s and 18.2 10^−6 cm/s
- Receiving chamber concentration Area ratio/OD ([7]; BL→AP): 0.699 and 0.708
- Penetration Type ([7]; Caco2 cell model): High
- intestinal permeability ([7]; Caco2 cell model): high intestinal hypertonicity
- IC50 [8]: 290 nM
